Data: ChEMBL document CHEMBL1141089, “Conformationally restricted homotryptamines. 2. Indole cyclopropylmethylamines as selective serotonin reuptake inhibitors” (J Med Chem, 2005)
Several values for one entry are separate records, joined by “and”; a condition that tells them apart may be missing. Equal entries are not always repeated.

Key:
[1] = biological target: T1, Sodium-dependent serotonin transporter (Homo sapiens, UniProt P31645); experiment: Binding inhibition towards human serotonin transporter
[2] = biological target: T2, Sodium-dependent noradrenaline transporter (Homo sapiens, UniProt P23975); experiment: Binding inhibition towards human norepinephrine transporter at 1 uM
[3] = biological target: T3, Sodium-dependent dopamine transporter (Homo sapiens, UniProt Q01959); experiment: Binding inhibition towards human dopamine transporter at 1 uM
[4] = biological target: T1, Sodium-dependent serotonin transporter; experiment: In vitro binding inhibition towards human serotonin transporter
[5] = biological target: T2, Sodium-dependent noradrenaline transporter; experiment: In vitro binding affinity towards human norepinephrine transporter
[6] = biological target: T3, Sodium-dependent dopamine transporter; experiment: Binding inhibition towards human dopamine transporter

T3 sequence (Q01959 whole entry): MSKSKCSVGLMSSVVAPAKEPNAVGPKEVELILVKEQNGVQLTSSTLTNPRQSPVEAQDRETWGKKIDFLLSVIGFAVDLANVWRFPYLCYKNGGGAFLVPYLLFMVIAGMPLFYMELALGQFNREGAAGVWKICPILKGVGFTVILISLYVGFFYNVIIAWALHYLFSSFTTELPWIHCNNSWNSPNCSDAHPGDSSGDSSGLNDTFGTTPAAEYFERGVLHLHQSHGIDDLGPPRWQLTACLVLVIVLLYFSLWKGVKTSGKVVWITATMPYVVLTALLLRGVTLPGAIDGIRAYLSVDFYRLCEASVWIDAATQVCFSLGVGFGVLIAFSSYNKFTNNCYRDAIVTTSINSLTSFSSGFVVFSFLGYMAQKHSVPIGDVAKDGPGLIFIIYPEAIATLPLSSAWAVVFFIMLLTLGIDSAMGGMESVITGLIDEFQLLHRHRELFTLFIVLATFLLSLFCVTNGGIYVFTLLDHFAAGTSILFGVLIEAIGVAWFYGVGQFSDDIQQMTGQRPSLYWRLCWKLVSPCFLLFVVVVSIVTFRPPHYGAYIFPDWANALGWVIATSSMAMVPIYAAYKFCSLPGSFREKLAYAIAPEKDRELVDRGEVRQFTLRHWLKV
T1 sequence (P31645 whole entry): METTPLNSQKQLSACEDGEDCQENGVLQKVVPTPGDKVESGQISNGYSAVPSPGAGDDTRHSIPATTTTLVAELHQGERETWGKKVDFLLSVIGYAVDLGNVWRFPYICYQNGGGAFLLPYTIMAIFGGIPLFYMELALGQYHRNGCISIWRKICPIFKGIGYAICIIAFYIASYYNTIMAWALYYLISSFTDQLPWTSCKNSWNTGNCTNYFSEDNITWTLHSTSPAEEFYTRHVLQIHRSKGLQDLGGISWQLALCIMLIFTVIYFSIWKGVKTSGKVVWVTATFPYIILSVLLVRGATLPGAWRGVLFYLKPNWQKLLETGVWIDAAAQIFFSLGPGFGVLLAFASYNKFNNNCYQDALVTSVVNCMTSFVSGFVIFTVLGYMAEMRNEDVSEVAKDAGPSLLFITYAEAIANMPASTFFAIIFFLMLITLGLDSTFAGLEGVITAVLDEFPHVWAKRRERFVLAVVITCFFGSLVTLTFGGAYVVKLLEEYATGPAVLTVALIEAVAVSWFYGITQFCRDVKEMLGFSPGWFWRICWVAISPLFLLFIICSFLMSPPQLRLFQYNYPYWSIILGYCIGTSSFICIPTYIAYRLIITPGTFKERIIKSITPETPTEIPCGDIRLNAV
T2 sequence (P23975 whole entry): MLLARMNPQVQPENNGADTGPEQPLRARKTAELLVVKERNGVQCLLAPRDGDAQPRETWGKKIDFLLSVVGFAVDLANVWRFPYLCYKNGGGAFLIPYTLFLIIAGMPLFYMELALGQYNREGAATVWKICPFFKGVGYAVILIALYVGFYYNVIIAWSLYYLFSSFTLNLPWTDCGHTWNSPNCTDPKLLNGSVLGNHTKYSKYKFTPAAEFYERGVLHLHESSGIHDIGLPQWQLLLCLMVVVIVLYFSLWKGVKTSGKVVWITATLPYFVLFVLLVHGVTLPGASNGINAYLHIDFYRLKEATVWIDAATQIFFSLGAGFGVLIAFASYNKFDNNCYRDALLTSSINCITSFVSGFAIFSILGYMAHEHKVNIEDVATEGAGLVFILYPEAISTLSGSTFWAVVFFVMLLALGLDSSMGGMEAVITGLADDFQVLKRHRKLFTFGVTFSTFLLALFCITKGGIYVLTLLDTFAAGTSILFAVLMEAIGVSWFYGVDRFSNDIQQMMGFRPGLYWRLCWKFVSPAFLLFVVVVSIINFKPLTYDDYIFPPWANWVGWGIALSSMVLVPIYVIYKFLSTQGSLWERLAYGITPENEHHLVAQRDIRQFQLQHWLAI

| SMILES | Ki [1] | inhibition [2] | inhibition [3] | Ki [4] | Ki [5] | Ki [6] |
| --- | --- | --- | --- | --- | --- | --- |
| CN(C)C[C@H]1C[C@H]1c1c[nH]c2ccc(F)cc12 | 100 nM |  |  |  |  |  |
| CN(C)C[C@H]1C[C@@H]1c1c[nH]c2cccc(C#N)c12 (racemic) | 230 nM and 420 nM |  |  |  |  |  |
| CN(C)C[C@@H]1C[C@H]1c1c[nH]c2ccc(F)cc12 | 41 nM | < 50% | < 50% |  |  |  |
| CN(C)CCCc1c[nH]c2ccc(F)cc12 | 4 nM | < 50% | < 50% |  |  |  |
| CN(C)C[C@@H]1C[C@@H]1c1c[nH]c2ccc(F)cc12 (stereo in doubt; 16e) [listing 1 of 2 here] |  | < 50% | < 50% |  |  |  |
| CN(C)C[C@H]1C[C@@H]1c1c[nH]c2cccc(F)c12 (racemic) | 59 nM | < 50% | < 50% |  |  |  |
| CN(C)C[C@H]1C[C@@H]1c1c[nH]c2c(F)cccc12 (racemic) | 10 nM | < 50% | < 50% |  |  |  |
| CN(C)CCCc1c[nH]c2ccc(C#N)cc12 | 2 nM | < 50% | < 50% |  |  |  |
| CN(C)C[C@H]1C[C@@H]1c1c[nH]c2ccc(F)cc12 (racemic) [listing 1 of 2 here] | 2.1 nM |  |  |  |  |  |
| CN(C)C[C@H]1C[C@@H]1c1c[nH]c2ccc(C#N)cc12 (racemic) [listing 1 of 2 here] | 0.56 nM |  |  |  |  |  |
| CN(C)C[C@H]1C[C@@H]1c1c[nH]c2ccc(F)cc12 [listing 1 of 2 here] |  | < 50% | < 50% |  |  |  |
| CN(C)C[C@@H]1C[C@@H]1c1c[nH]c2ccc(C#N)cc12 [listing 1 of 3 here] | 7.1 nM |  |  |  |  |  |
| CN(C)C[C@H]1C[C@@H]1c1c[nH]c2ccc(C#N)cc12 |  |  |  | 0.18 nM | 4600 nM | 2100 nM |
| CN(C)C[C@@H]1C[C@@H]1c1c[nH]c2ccc(C#N)cc12 [listing 2 of 3 here] |  | < 50% | < 50% |  |  |  |
| CN(C)C[C@H]1C[C@@H]1c1c[nH]c2ccc(C#N)cc12 (racemic) [listing 2 of 2 here] |  | < 50% | < 50% |  |  |  |
| CN(C)C[C@H]1C[C@@H]1c1c[nH]c2cc(F)ccc12 (racemic) | 38 nM | < 50% | < 50% |  |  |  |
| CN(C)C[C@H]1C[C@@H]1c1cn(C)c2ccc(C#N)cc12 | 6.5 nM | < 50% | < 50% |  |  |  |
| CN(C)C[C@@H]1C[C@@H]1c1c[nH]c2ccc(C#N)cc12 [listing 3 of 3 here] | 17 nM |  |  |  |  |  |
| CN(C)C[C@H]1C[C@@H]1c1c[nH]c2ccc(F)cc12 (racemic) [listing 2 of 2 here] |  | < 50% | < 50% |  |  |  |
| CN(C)C[C@H]1C[C@H]1c1c[nH]c2ccc(C#N)cc12 | 5.7 nM | < 50% | < 50% |  |  |  |
| CN(C)C[C@H]1C[C@@H]1c1c[nH]c2c(C#N)cccc12 (racemic) | 0.58 nM | < 50% | < 50% |  |  |  |
| CN(C)C[C@@H]1C[C@H]1c1c[nH]c2ccc(C#N)cc12 | 8.9 nM | < 50% | < 50% |  |  |  |
| CN(C)C[C@@H]1C[C@@H]1c1c[nH]c2ccc(F)cc12 (stereo in doubt; (-)-16e) [listing 1 of 2 here] | 14 nM |  |  |  |  |  |
| CN(C)C[C@@H]1C[C@@H]1c1c[nH]c2ccc(F)cc12 (stereo in doubt; (-)-16e) [listing 2 of 2 here] |  | < 50% | < 50% |  |  |  |
| CN(C)C[C@@H]1C[C@@H]1c1c[nH]c2ccc(F)cc12 (stereo in doubt; 16e) [listing 2 of 2 here] | 24 nM |  |  |  |  |  |
| CN(C)C[C@H]1C[C@@H]1c1c[nH]c2cc(C#N)ccc12 (racemic) | 7.4 nM | < 50% | < 50% |  |  |  |
| CCn1cc([C@H]2C[C@@H]2CN(C)C)c2cc(C#N)ccc21 | 1.8 nM | < 50% | < 50% |  |  |  |
| CN(C)C[C@H]1C[C@@H]1c1c[nH]c2ccc(F)cc12 [listing 2 of 2 here] | 0.68 nM |  |  |  |  |  |
